From patent publication US20230158157A1, “POTENT AND SELECTIVE DEGRADERS OF ALK” (DANA-FARBER CANCER INSTITUTE, INC., priority 2020, published 2023)
Read-outs that look alike come from different tables or passages of the source.

Legend:
H3122 cells = experiment: CTG; format: cell-based; conditions: read-out: CTG IC50
EML4-ALK = molecular target: T1, EML4-ALK (Homo sapiens, UniProt Q9UM73); experiment: EML4-ALK HiBit degradation assay in CRISPR-tagged H3122 cells (Nano-Glo HiBit Lytic Detection); format: cell-based
T1 construct: endogenous in cells; host or cells: H3122 (NSCLC), single-cell clone after CRISPR knock-in of HiBit; the other entry of the earlier key: EML4 (Q9HC35, Echinoderm microtubule-associated protein-like 4)
Method: (§1) NSCLC cell line H3122 was subjected to CRISPR to express EML4-ALK with HiBit-tag on its c-terminal. Single-cell clone was selected and expanded for the following assays that monitor endogenous EML4-ALK level in high throughput manner. Cells were seeded in 384-well white Tissue-culture plates at 3000 cells/well for 8 hours. […] HiBit signal was assessed using Nano-Glo® HiBit Lytic Detection System (Promega™). Degrader-treated was normalized by DMSO-treated controls and DC50 and Dmax were generated by GraphPad Prism® 8.0.
as §1, with “its c-terminus. A single-cell” for “its c-terminal. Single-cell”, “Degrader-treated cells were” for “Degrader-treated was”
as §1, with “its C-terminus. A single-cell” for “its c-terminal. Single-cell”, “Degrader-treated cells were” for “Degrader-treated was”

[1] = Homo sapiens, NCI-H3122, Table 1
[2] = NCI-H3122, Table 1, first Dmax column, H3122 EML4-ALK-HiBit, 16 hours, read-out: Degradation Dmax
[3] = NCI-H3122, Table 1, second Dmax column, H3122 EML4-ALK-HiBit, 16 hours, read-out: Degradation Dmax
[4] = NCI-H3122, Table 1, average Dmax, read-out: Degradation Avg. Dmax
[5] = Table 1, first DC50 column, H3122 EML4-ALK-HiBit, 16 hours, read-out: Degradation DC50
[6] = Table 1, second DC50 column, H3122 EML4-ALK-HiBit, 16 hours, read-out: Degradation DC50
[7] = Table 1, average DC50, read-out: Degradation Avg. DC50
[8] = Table 2, first DC50 column, H3122 EML4-ALK-HiBit, 16 hours, read-out: Degradation DC50
[9] = Table 2, average DC50, read-out: Degradation Avg. DC50
[10] = Homo sapiens, NCI-H3122, Table 2
[11] = NCI-H3122, Table 2, first Dmax column, H3122 EML4-ALK-HiBit, 16 hours, read-out: Degradation Dmax
[12] = NCI-H3122, Table 2, average Dmax, read-out: Degradation Avg. Dmax
[13] = NCI-H3122, Table 2, second Dmax column, H3122 EML4-ALK-HiBit, 16 hours, read-out: Degradation Dmax
[14] = Table 2, second DC50 column, H3122 EML4-ALK-HiBit, 16 hours, read-out: Degradation DC50

T1 sequence (Q9UM73 with tags, fused parts or gaps): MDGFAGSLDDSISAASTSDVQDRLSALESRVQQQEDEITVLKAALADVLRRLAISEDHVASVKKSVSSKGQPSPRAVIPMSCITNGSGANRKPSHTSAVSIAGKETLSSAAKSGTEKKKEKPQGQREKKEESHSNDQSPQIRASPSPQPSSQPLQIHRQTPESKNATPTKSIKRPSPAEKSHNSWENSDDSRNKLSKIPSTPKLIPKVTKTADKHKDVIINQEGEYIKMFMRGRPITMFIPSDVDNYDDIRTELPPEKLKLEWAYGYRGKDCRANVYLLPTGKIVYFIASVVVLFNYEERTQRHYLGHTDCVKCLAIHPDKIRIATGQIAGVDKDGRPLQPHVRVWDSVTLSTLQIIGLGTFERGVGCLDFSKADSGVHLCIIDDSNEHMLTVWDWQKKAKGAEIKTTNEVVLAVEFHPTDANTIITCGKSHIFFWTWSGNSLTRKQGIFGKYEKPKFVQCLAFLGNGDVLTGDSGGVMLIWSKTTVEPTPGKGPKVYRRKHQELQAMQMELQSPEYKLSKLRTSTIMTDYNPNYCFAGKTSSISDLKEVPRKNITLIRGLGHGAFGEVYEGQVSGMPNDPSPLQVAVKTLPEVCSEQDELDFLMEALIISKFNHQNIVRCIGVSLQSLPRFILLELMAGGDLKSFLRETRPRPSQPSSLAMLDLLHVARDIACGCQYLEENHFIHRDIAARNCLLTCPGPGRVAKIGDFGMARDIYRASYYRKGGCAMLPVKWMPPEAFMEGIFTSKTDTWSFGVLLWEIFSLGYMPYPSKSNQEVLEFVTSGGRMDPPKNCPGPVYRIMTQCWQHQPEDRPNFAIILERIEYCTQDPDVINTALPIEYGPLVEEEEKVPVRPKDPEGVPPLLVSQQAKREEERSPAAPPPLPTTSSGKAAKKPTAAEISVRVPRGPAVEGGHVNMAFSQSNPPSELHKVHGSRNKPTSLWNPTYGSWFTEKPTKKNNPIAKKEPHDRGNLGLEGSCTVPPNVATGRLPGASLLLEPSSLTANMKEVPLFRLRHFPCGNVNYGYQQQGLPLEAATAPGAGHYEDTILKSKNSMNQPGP

IC50 (H3122 cells; [1])	Dmax (EML4-ALK; [2])	Dmax (EML4-ALK; [3])	Dmax (EML4-ALK; [4])	DC50 (EML4-ALK; [5])	DC50 (EML4-ALK; [6])	DC50 (EML4-ALK; [7])	DC50 (EML4-ALK; [8])	DC50 (EML4-ALK; [9])	IC50 (H3122 cells; [10])	Dmax (EML4-ALK; [11])	Dmax (EML4-ALK; [12])	SMILES	other results
1480 nM	79.1%	99.3%	89.2%	402 nM	184 nM	293 nM						CN[C@@H](C)C(=O)N[C@H](C(=O)N1Cc2cc(OCCCCCNCCc3cc(OC)c(Nc4ncc(Cl)c(Nc5ccccc5S(=O)(=O)C(C)C)n4)cc3C)ccc2C[C@H]1C(=O)N[C@H]1CCCc2ccccc21)C(C)(C)C [Compound 39]	IC50 (H3122 cells; Homo sapiens, NCI-H3122, Table 1, unheaded column beside IC50 (nM)): 414 nM
289 nM	38.1%		38.1%	1230 nM		1230 nM						COc1cc(CCNCCCC(=O)N[C@H](C(=O)N2C[C@H](O)C[C@H]2C(=O)N[C@@H](C)c2ccc(-c3scnc3C)cc2)C(C)(C)C)c(C)cc1Nc1ncc(Cl)c(Nc2ccccc2S(=O)(=O)C(C)C)n1 [Compound 43]	
252 nM	53%		53%	1250 nM		1250 nM						COc1cc(CCNCCCCCC(=O)N[C@H](C(=O)N2C[C@H](O)C[C@H]2C(=O)N[C@@H](C)c2ccc(-c3scnc3C)cc2)C(C)(C)C)c(C)cc1Nc1ncc(Cl)c(Nc2ccccc2S(=O)(=O)C(C)C)n1 [Compound 44]	
106 nM	51%		51%	390 nM		390 nM						COc1cc(CCNCCCCCCCC(=O)N[C@H](C(=O)N2C[C@H](O)C[C@H]2C(=O)N[C@@H](C)c2ccc(-c3scnc3C)cc2)C(C)(C)C)c(C)cc1Nc1ncc(Cl)c(Nc2ccccc2S(=O)(=O)C(C)C)n1 [Compound 45]	
316 nM	58%	34.5%	51.3%	1390 nM	206 nM	801 nM						COc1cc(CCNCCOCCOCCC(=O)N[C@H](C(=O)N2C[C@H](O)CC2C(=O)N[C@@H](C)c2ccc(-c3scnc3C)cc2)C(C)(C)C)c(C)cc1Nc1ncc(Cl)c(Nc2ccccc2S(=O)(=O)C(C)C)n1 (some centres unmarked) [Compound 46]	
285 nM	81.9%	95.6%	88.7%	1100 nM	347 nM	723 nM						COc1cc(CCNCCOCCOCCOCCC(=O)N[C@H](C(=O)N2C[C@H](O)C[C@H]2C(=O)N[C@@H](C)c2ccc(-c3scnc3C)cc2)C(C)(C)C)c(C)cc1Nc1ncc(Cl)c(Nc2ccccc2S(=O)(=O)C(C)C)n1 [Compound 47]	
388 nM	77.2%	108%	92.8%	961 nM	611 nM	786 nM						COc1cc(CCNCCCCCSC(C)(C)[C@H](NC(C)=O)C(=O)N2C[C@H](O)C[C@H]2C(=O)N[C@@H](C)c2ccc(-c3scnc3C)cc2)c(C)cc1Nc1ncc(Cl)c(Nc2ccccc2S(=O)(=O)C(C)C)n1 [Compound 48]	
				57 nM	24 nM	41 nM						COc1cc(CCN(C)CCCCCNc2cccc3c2C(=O)N(C2CCC(=O)NC2=O)C3=O)c(C)cc1Nc1ncc(Cl)c(Nc2ccccc2S(=O)(=O)C(C)C)n1 (centres unmarked) [Compound 50]	IC50 (H3122 cells; Table 1): 20.6 nM
121 nM	64.9%	68.2%	66.5%	113 nM	72 nM	93 nM						COc1cc(CCNCCCCCOc2cc(-c3scnc3C)ccc2[C@H](C)NC(=O)[C@@H]2C[C@@H](O)CN2C(=O)[C@@H](NC(C)=O)C(C)(C)C)c(C)cc1Nc1ncc(Cl)c(Nc2ccccc2S(=O)(=O)C(C)C)n1 [Compound 53]	
73.6 nM	68.4%	68.2%		67 nM	57 nM	62 nM						COc1cc(CCN(C)CCCCCOc2cc(-c3scnc3C)ccc2[C@H](C)NC(=O)[C@@H]2C[C@@H](O)CN2C(=O)[C@@H](NC(C)=O)C(C)(C)C)c(C)cc1Nc1ncc(Cl)c(Nc2ccccc2S(=O)(=O)C(C)C)n1 [Compound 54]	
296 nM	74.6%	102%	88.2%	624 nM	360 nM	492 nM						CC[C@@H](NC(=O)C1CC(NC(=O)CCCCCCC(=O)N(C)CCc2cc(OC)c(Nc3ncc(Cl)c(Nc4ccccc4S(=O)(=O)C(C)C)n3)cc2C)CN1C(=O)[C@@H](NC(=O)[C@H](C)NC)C(C)(C)C)c1ccccc1 (some centres unmarked) [Compound 55]	
				163 nM	226 nM	195 nM						CC[C@@H](NC(=O)[C@@H]1C[C@H](NC(=O)CCCCCCCC(=O)N(C)CCc2cc(OC)c(Nc3ncc(Cl)c(Nc4ccccc4S(=O)(=O)C(C)C)n3)cc2C)CN1C(=O)[C@@H](NC(=O)[C@H](C)NC)C(C)(C)C)c1ccccc1 [Compound 56]	IC50 (H3122 cells; Table 1): 360 nM
							9340 nM	9340 nM				COc1cc(CCN(C)C(=O)CCCNC(=O)COc2cccc3c2C(=O)N(C2CCC(=O)NC2=O)C3=O)c(C)cc1Nc1ncc(Cl)c(Nc2ccccc2P(C)(C)=O)n1 (centres unmarked) [Compound 57]	IC50 (H3122 cells; Table 2): > 10000 nM
							3740 nM	3740 nM	1720 nM	33.7%	33.7%	COc1cc(CCN(C)C(=O)CCCCCCCCNC(=O)COc2cccc3c2C(=O)N(C2CCC(=O)NC2=O)C3=O)c(C)cc1Nc1ncc(Cl)c(Nc2ccccc2P(C)(C)=O)n1 (centres unmarked) [Compound 59]	
							9040 nM	8700 nM	> 10000 nM	29.5%	34.5%	COc1cc(CCN(C)C(=O)CCCC#Cc2cccc3c2C(=O)N(C2CCC(=O)NC2=O)C3=O)c(C)cc1Nc1ncc(Cl)c(Nc2ccccc2P(C)(C)=O)n1 (centres unmarked) [Compound 61]	Dmax (EML4-ALK; [13]): 39.6%; DC50 (EML4-ALK; [14]): 8370 nM
							4380 nM	4380 nM	> 10000 nM	27.8%	27.8%	COc1cc(CCN(C)C(=O)CCCCCC#Cc2cccc3c2C(=O)N(C2CCC(=O)NC2=O)C3=O)c(C)cc1Nc1ncc(Cl)c(Nc2ccccc2P(C)(C)=O)n1 (centres unmarked) [Compound 62]	
							3910 nM	3910 nM	> 10000 nM	27.3%	27.3%	COc1cc(CCN(C)C(=O)CCOCCOCCOCC#Cc2cccc3c2C(=O)N(C2CCC(=O)NC2=O)C3=O)c(C)cc1Nc1ncc(Cl)c(Nc2ccccc2P(C)(C)=O)n1 (centres unmarked) [Compound 63]	
							2560 nM	2560 nM	1100 nM	26.2%	26.2%	COc1cc(CCN(C)C(=O)CCCCCNc2cccc3c2C(=O)N(C2CCC(=O)NC2=O)C3=O)c(C)cc1Nc1ncc(Cl)c(Nc2ccccc2P(C)(C)=O)n1 (centres unmarked) [Compound 65]	
							1730 nM	1200 nM	1630 nM	23.6%	36.5%	COc1cc(CCN(C)C(=O)CCCCCCCCNc2cccc3c2C(=O)N(C2CCC(=O)NC2=O)C3=O)c(C)cc1Nc1ncc(Cl)c(Nc2ccccc2P(C)(C)=O)n1 (centres unmarked) [Compound 66]	Dmax (EML4-ALK; [13]): 49.3%; DC50 (EML4-ALK; [14]): 670 nM
							8820 nM	6200 nM	2950 nM	37.9%	37.9%	COc1cc(CCNCCCC(=O)N[C@H](C(=O)N2C[C@H](O)C[C@H]2C(=O)N[C@@H](C)c2ccc(-c3scnc3C)cc2)C(C)(C)C)c(C)cc1Nc1ncc(Cl)c(Nc2ccccc2P(C)(C)=O)n1 [Compound 72]	Dmax (EML4-ALK; [13]): 37.9%; DC50 (EML4-ALK; [14]): 3590 nM
